Data as given in US6043246A, “Urea derivatives” (Banyu Pharmaceutical Co., Ltd., priority 1996, dated 2000).

Molecular target: T1, human NPY Y5 receptor (Homo sapiens, UniProt Q15761)
T1 construct: expressed in transfected cells; host or cells: COS-7, CHO and LM(tk-) cells (ATCC); vectors pcDNA3, pRc/RSV, pCI-neo; membrane preparations
T1 sequence (Q15761 1-445): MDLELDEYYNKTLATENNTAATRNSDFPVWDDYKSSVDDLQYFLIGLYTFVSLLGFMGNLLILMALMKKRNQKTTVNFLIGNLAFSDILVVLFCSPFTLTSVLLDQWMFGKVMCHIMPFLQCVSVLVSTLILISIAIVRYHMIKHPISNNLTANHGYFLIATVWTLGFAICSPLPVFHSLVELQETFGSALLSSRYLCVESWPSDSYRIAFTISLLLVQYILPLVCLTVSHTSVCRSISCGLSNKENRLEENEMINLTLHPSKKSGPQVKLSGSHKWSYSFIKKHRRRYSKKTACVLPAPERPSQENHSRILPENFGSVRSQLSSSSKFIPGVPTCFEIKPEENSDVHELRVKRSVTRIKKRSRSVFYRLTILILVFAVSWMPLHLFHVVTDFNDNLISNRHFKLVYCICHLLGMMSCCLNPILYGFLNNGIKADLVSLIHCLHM
Assay: Test of Inhibition of NPY Binding ([125I] peptide YY binding to membrane preparations)
Conditions: membranes of cells expressing NPY Y5 receptor, 25° C., 2 hours, read-out: concentration needed to inhibit 50% of the specific binding of peptide YY (IC50 value)
Excerpt: cDNA Sequence encoding a human NPY Y5 receptor [International Publication WO 96/16542] was cloned into expression vectors pcDNA3, pRc/RSV (manufactured by Invitrogen) and pCI-neo (manufactured by Promega). Using the cationic lipid method [see Proceedings of the National Academy of Science of the United States of America, vol.84, p.7413 (1987)], host cells COS-7, CHO and LM(tk-) (American Type Culture Collection) were transfected with the thus prepared expression vectors to obtain cells in which the NPY Y5 receptor had been expressed.
Each of the membrane preparations thus prepared from the cells in which the NPY Y5 receptor had been expressed was incubated together with each compound to be tested and 20,000 cpm of [^125 I] peptide YY (manufactured by Amersham) at 25° C. for 2 hours in an assay buffer solution (25 mM HEPES buffer, pH 7.4, containing 10 mM magnesium chloride, 1 mM phenylmethylsulfonyl fluoride and 0.1% bacitracin) and then, the reaction mixture was filtered through a glass filter GF/C. After washing with 50 mM Tris buffer, pH 7.4, containing 0.3% BSA, radioactivity on the glass filter was measured using a gamma counter. […] As the result, IC50 value of the compound of Example 17 was calculated to be […].

IC50: 27 nM
SMILES: COc1ccc(-c2cc(NC(=O)N3CCN(c4cccc(Cl)c4)CC3)[nH]n2)cc1 [Example 17, 3-[4-(3-chlorophenyl)piperazinyl]carbonylamino-5-(4-methoxyphenyl)pyrazole]
